Data on 16 compounds can be found in US20080200454A1, “CARBON-LINKED TETRAHYDRO-PYRAZOLO-PYRIDINE MODULATORS OF CATHEPSIN S” (priority 2007, published 2008).

Molecules are shown by their SMILES.

The target in one test is Recombinant human cathepsin S (CatS) (Homo sapiens, UniProt P25774). The experiment in a line: Recombinant human cathepsin S (CatS) inhibition assay, fluorogenic substrate Z-Valine-Valine-Arginine-AMC.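 Further: Baculovirus-expressed CatS in pH 5.0 sodium acetate buffer with DTT and NaCl, fluorescence read each minute over 20 min, inhibition derived from rate slope.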
Chain of Recombinant human cathepsin S (CatS) (P25774 115-331): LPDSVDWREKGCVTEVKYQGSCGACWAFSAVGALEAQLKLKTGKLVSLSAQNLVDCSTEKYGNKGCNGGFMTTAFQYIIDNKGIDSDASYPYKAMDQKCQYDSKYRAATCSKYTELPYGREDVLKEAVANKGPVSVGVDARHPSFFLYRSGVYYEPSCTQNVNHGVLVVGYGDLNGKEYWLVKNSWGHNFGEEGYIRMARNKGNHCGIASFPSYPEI
Settings: not given
For the compound `C[C@@H]1COCCN1CCCn1nc(-c2ccc(Cl)c(C#Cc3ccc(CNCc4ccc(Cl)cc4)cc3)c2)c2c1CCN(S(C)(=O)=O)C2` [Example 536, 1-[4-({2-Chloro-5-[1-{3-[(3R)-3-methylmorpholin-4-yl]propyl}-5-(methylsulfonyl)-4,5,6,7-tetrahydro-1H-pyrazolo[4,3-c]pyridin-3-yl]phenyl}ethynyl)phenyl]-N-[(4-chlorophenyl)methyl]methanamine], the IC50 was 200 nM. `COc1ccc(C#Cc2cc(-c3nn(CCCN4CCOCC4)c4c3CN(S(C)(=O)=O)CC4)ccc2Cl)cc1CNCc1ccccc1` [Example 540, 1-[5-({2-Chloro-5-[5-(methylsulfonyl)-1-(3-morpholin-4-ylpropyl)-4,5,6,7-tetrahydro-1H-pyrazolo[4,3-c]pyridin-3-yl]phenyl}ethynyl)-2-(methyloxy)phenyl]-N-(phenylmethyl)methanamine]: the IC50 worked out at 140 nM. Regarding `NC(=O)N1CCc2c(c(-c3ccc(Cl)c(C#Cc4ccc(C(=O)NCc5ccc(Cl)cc5)cc4)c3)nn2CCCN2CCSCC2)C1` [Example 547, 3-(4-Chloro-3-{[4-({[(4-chlorophenyl)methyl]amino}carbonyl)phenyl]ethynyl}phenyl)-1-(3-thiomorpholin-4-ylpropyl)-1,4,6,7-tetrahydro-5H-pyrazolo[4,3-c]pyridine-5-carboxamide], the IC50 is 120 nM.

As to `NC(=O)N1CCc2c(c(-c3ccc(Cl)c(C#Cc4ccc(COCC5CNCCO5)cc4)c3)nn2CCCN2CCSCC2)C1` (stereo not shown) [Example 548, 3-{4-Chloro-3-[(4-{[(morpholin-2-ylmethyl)oxy]methyl}phenyl)ethynyl]phenyl}-1-(3-thiomorpholin-4-ylpropyl)-1,4,6,7-tetrahydro-5H-pyrazolo[4,3-c]pyridine-5-carboxamide], the IC50 was 120 nM.

The same test, now with this note: CatS IC50.
`CC(C)CNCc1cccc(CCc2cc(-c3nn(CCCN4CCOCC4)c4c3CN(S(C)(=O)=O)CC4)ccc2Cl)c1` [Example 531, N-{[3-(2-{2-Chloro-5-[5-(methylsulfonyl)-1-(3-morpholin-4-ylpropyl)-4,5,6,7-tetrahydro-1H-pyrazolo[4,3-c]pyridin-3-yl]phenyl}ethyl)phenyl]methyl}-2-methylpropan-1-amine]: the IC50 was found to be 640 nM. With `Cc1ccccc1CNCc1ccc(C#Cc2cc(-c3nn(CCCN4CCSCC4)c4c3CN(C(N)=O)CC4)ccc2Cl)cc1` [Example 532, 3-(4-Chloro-3-{[4-({[(2-methylphenyl)methyl]amino}methyl)phenyl]ethynyl}phenyl)-1-(3-thiomorpholin-4-ylpropyl)-1,4,6,7-tetrahydro-5H-pyrazolo[4,3-c]pyridine-5-carboxamide], the IC50 stood at 90 nM. `COc1ccccc1CNCc1ccc(C#Cc2cc(-c3nn(CCCN4CCSCC4)c4c3CN(C(N)=O)CC4)ccc2Cl)cc1` [Example 533, 3-[4-Chloro-3-({4-[({[2-(methyloxy)phenyl]methyl}amino)methyl]phenyl}ethynyl)phenyl]-1-(3-thiomorpholin-4-ylpropyl)-1,4,6,7-tetrahydro-5H-pyrazolo[4,3-c]pyridine-5-carboxamide]: the IC50 amounted to 100 nM. As to `COc1cccc(CNCc2ccc(C#Cc3cc(-c4nn(CCCN5CCSCC5)c5c4CN(C(N)=O)CC5)ccc3Cl)cc2)c1` [Example 534, 3-[4-Chloro-3-({4-[({[3-(methyloxy)phenyl]methyl}amino)methyl]phenyl}ethynyl)phenyl]-1-(3-thiomorpholin-4-ylpropyl)-1,4,6,7-tetrahydro-5H-pyrazolo[4,3-c]pyridine-5-carboxamide], the IC50 is 90 nM. Regarding `CS(=O)(=O)N1CCc2c(c(-c3ccc(Cl)c(CCc4cccc(CNCc5ccccc5)c4)c3)nn2CCCN2CCOCC2)C1` [Example 535, 1-[3-(2-{2-Chloro-5-[5-(methylsulfonyl)-1-(3-morpholin-4-ylpropyl)-4,5,6,7-tetrahydro-1H-pyrazolo[4,3-c]pyridin-3-yl]phenyl}ethyl)phenyl]-N-(phenylmethyl)methanamine], the IC50 amounted to 640 nM. Regarding `CS(=O)(=O)N1CCc2c(c(-c3ccc(Cl)c(C#Cc4ccc(CNCc5ccc(Cl)cc5)cc4)c3)nn2CCCN2CC[S+]([O-])CC2)C1` [Example 537, 1-{4-[(2-Chloro-5-{5-(methylsulfonyl)-1-[3-(1-oxidothiomorpholin-4-yl)propyl]-4,5,6,7-tetrahydro-1H-pyrazolo[4,3-c]pyridin-3-yl}phenyl)ethynyl]phenyl}-N-[(4-chlorophenyl)methyl]methanamine], the half-maximal inhibitory concentration (IC50) stood at 280 nM. `COc1ccc(CNCc2ccc(C#Cc3cc(-c4nn(CCCN5CCSCC5)c5c4CN(C(N)=O)CC5)ccc3Cl)cc2)cc1` [Example 538, 3-[4-Chloro-3-({4-[({[4-(methyloxy)phenyl]methyl}amino)methyl]phenyl}ethynyl)phenyl]-1-(3-thiomorpholin-4-ylpropyl)-1,4,6,7-tetrahydro-5H-pyrazolo[4,3-c]pyridine-5-carboxamide]: the IC50 came to 110 nM. The same measure, in the same setting: the same measure for `C[C@H]1COCCN1CCCn1nc(-c2ccc(Cl)c(C#Cc3ccc(F)c(CNCc4ccccc4)c3)c2)c2c1CCN(S(C)(=O)=O)C2` [Example 539, 1-[5-({2-Chloro-5-[1-{3-[(3S)-3-methylmorpholin-4-yl]propyl}-5-(methylsulfonyl)-4,5,6,7-tetrahydro-1H-pyrazolo[4,3-c]pyridin-3-yl]phenyl}ethynyl)-2-fluorophenyl]-N-(phenylmethyl)methanamine]: 210 nM; for `CS(=O)(=O)N1CCc2c(c(-c3ccc(Cl)c(C#Cc4ccc5c(c4)CN[C@@H](C(=O)N4CCOCC4)C5)c3)nn2CCCN2CCOCC2)C1` [Example 541, (3R)-7-({2-Chloro-5-[5-(methylsulfonyl)-1-(3-morpholin-4-ylpropyl)-4,5,6,7-tetrahydro-1H-pyrazolo[4,3-c]pyridin-3-yl]phenyl}ethynyl)-3-(morpholin-4-ylcarbonyl)-1,2,3,4-tetrahydroisoquinoline]: 960 nM. As for `NC(=O)N1CCc2c(c(-c3ccc(Cl)c(C#Cc4ccc(CNCc5ccccc5F)cc4)c3)nn2CCCN2CCSCC2)C1` [Example 542, 3-(4-Chloro-3-{[4-({[(2-fluorophenyl)methyl]amino}methyl)phenyl]ethynyl}phenyl)-1-(3-thiomorpholin-4-ylpropyl)-1,4,6,7-tetrahydro-5H-pyrazolo[4,3-c]pyridine-5-carboxamide], the IC50 was determined as 180 nM.

With `CS(=O)(=O)N1CCc2c(c(-c3ccc(Cl)c(C#Cc4ccc(CNCc5ccccc5)c(Cl)c4)c3)nn2CCCN2CCOCC2)C1` [Example 545, 1-[2-Chloro-4-({2-chloro-5-[5-(methylsulfonyl)-1-(3-morpholin-4-ylpropyl)-4,5,6,7-tetrahydro-1H-pyrazolo[4,3-c]pyridin-3-yl]phenyl}ethynyl)phenyl]-N-(phenylmethyl)methanamine], the IC50 was found to be 270 nM. `CS(=O)(=O)N1CCc2c(c(-c3ccc(Cl)c(C#Cc4ccc(CNCc5ccc(Cl)cc5)c(Cl)c4)c3)nn2CCCN2CCOCC2)C1` [Example 546, 1-[2-Chloro-4-({2-chloro-5-[5-(methylsulfonyl)-1-(3-morpholin-4-ylpropyl)-4,5,6,7-tetrahydro-1H-pyrazolo[4,3-c]pyridin-3-yl]phenyl}ethynyl)phenyl]-N-[(4-chlorophenyl)methyl]methanamine]: the IC50 is 300 nM.

As usually defined, the IC50 is the midpoint of a concentration-inhibition curve.
